Key:
AMPK = conditions: statement in figure legend; compound C used at 20, 40, 80, 160 μM; cited from earlier work
NLRP3 = NLRP3 levels by immunoblot in THP-1 cells; assay type: cell-based, human; conditions: THP-1 cells treated with IFN-γ and LPS, with or without bafilomycin A1
Description: (A) Levels of NLRP3 were determine in lysates from THP-1 cells subjected to TRIM20 or Scr siRNA were activated with 1,000 U/mL IFN-γ for 3 h, and 2.5 μg/mL LPS for 2 h (for optimal TRIM20 expression; Supplementary FIG. 24B). RI, relative intensity. (B) Levels of NLRP3 were determined from THP-1 subjected to TRIM20 or control knockdown and treated or not with bafilomycin A1 (Baf A1). (C) The abundance of NLRP3 protein was determined from THP-1 cells subjected to TRIM20 or control knockdown and exposed to Escherichia coli strain LF82 and IFN-γ in the presence or absence of bafilomycin. (D) The abundance of NLRP3 protein was determined from primary human MDMs subjected to TRIM20 or control knockdown and exposed to LPS and IFN-γ in the presence or absence of bafilomycin. (E) Levels of NLRP3 were determined from THP-1 cells subjected to ULK1, Beclin 1, or Scr siRNA were treated with IFN-γ and LPS. (F-H) Levels of NLRP3 (F), NLRP1 (G), or pro-capsase 1 (H) were determined in cells expressing GFP or GFP-TRIM20 following autophagy induction (EBSS, 3 h) in the presence or absence of bafilomycin A1. […]
(A) Co-immunoprecipitation analysis of deletion variants of TRIM20 (as GFP fusions; asterisks denote fusion products on the bottom blot) with NLRP3 in HEK293 cells. […] (E) THP-1 cells were treated with 1.0 μg/ml of LPS for 3 h, and levels of NLRP3 in lysate were determined by immunoblots. […]

NOD2 = experiment: Western blot of NOD2 levels in HEK293T cells co-expressing GFP-IRGM and Flag-NOD2; assay type: cell-based; conditions: Bafilomycin A1 100 nM for 8 h
Description: (A) Effects of IRGM expression on NOD2 levels in transfected HEK293T cells. Data, means±SE; *, p<0.05 (Student's unpaired t test). (B) Lysates of HEK293T cell co-expressing GFP or GFP-IRGM and Flag-NOD2, untreated/treated with Bafilomycin A1 (100 nM for 8 h) were subjected to Western blotting. (C) Lysates of cells co-expressing Flag-NOD2 and GFP, GFP-IRGM, or GFP-IRGM-K^mut were subjected to Western blotting. (D, E) Lysates from HEK293T cells co-expressing Myc-ULK1 and either GFP or increasing amounts of GFP-IRGM were subjected to Western blotting as in (D) with the relative abundance of Myc-ULK1 shown in (E). Blot was processed (dashed vertical line) to remove irrelevant lanes. (F) HEK293T cells transfected with plasmids encoding GFP, GFP-IRGM, or GFP-IRGM-K^mut and either Myc-ULK1 or Flag-Beclin 1 were lysed and subjected to Western blotting. Data from densitometric analyses of Western blots (B, C, E), means±SE, n=3*, p<0.05 (ANOVA). (G) Depiction of the role of IRGM ubiquitination in NOD2 degradation and ULK1 stabilization. See also FIG. 13.

[1] = test system: NLRP3, NLRP1, pro-caspase 1, TRIM20; experiment: Levels of inflammasome components and GFP-TRIM20 in cells expressing GFP-TRIM20 after autophagy induction (EBSS); assay type: cell-based; conditions: EBSS 3 h, with bafilomycin A1
Description: (A) Levels of NLRP3 were determine in lysates from THP-1 cells subjected to TRIM20 or Scr siRNA were activated with 1,000 U/mL IFN-γ for 3 h, and 2.5 μg/mL LPS for 2 h (for optimal TRIM20 expression; Supplementary FIG. 24B). RI, relative intensity. (B) Levels of NLRP3 were determined from THP-1 subjected to TRIM20 or control knockdown and treated or not with bafilomycin A1 (Baf A1). (C) The abundance of NLRP3 protein was determined from THP-1 cells subjected to TRIM20 or control knockdown and exposed to Escherichia coli strain LF82 and IFN-γ in the presence or absence of bafilomycin. (D) The abundance of NLRP3 protein was determined from primary human MDMs subjected to TRIM20 or control knockdown and exposed to LPS and IFN-γ in the presence or absence of bafilomycin. (E) Levels of NLRP3 were determined from THP-1 cells subjected to ULK1, Beclin 1, or Scr siRNA were treated with IFN-γ and LPS. (F-H) Levels of NLRP3 (F), NLRP1 (G), or pro-capsase 1 (H) were determined in cells expressing GFP or GFP-TRIM20 following autophagy induction (EBSS, 3 h) in the presence or absence of bafilomycin A1. Data, means±SE, n≥3, *P<0.05, ^†P≥0.05 (ANOVA).
(A) Co-immunoprecipitation analysis of deletion variants of TRIM20 (as GFP fusions; asterisks denote fusion products on the bottom blot) with NLRP3 in HEK293 cells. (B) THP-1 cells were treated with IFN-γ for 3 h, additionally treated with 2.5 μg/ml of LPS for indicated periods, and TRIM20 mRNA levels were determined by quantitative PCR. […] (C and D) Levels of NLRP3 were determined in lysates from THP-1 cells subjected to TRIM20 or Scr siRNA were (C) untreated either IFN-γ or LPS, or (D) LPS alone for 2 h. (E) THP-1 cells were treated with 1.0 μg/ml of LPS for 3 h, and levels of NLRP3 in lysate were determined by immunoblots. (F) Knockdown efficacies of ULK1 and Beclin 1 by siRNA were examined by quantitative RT-PCR. (G and H) Levels of GFP-TRIM20 were determined in cells co-expressing (G) with or (H) without NLRP3 following autophagy induction (EBSS, 3 h) in the presence or absence of bafilomycin A1. […]

dimerized IRF3 = experiment: IRF3 dimerization assay (native PAGE) in THP-1 cells; assay type: cell-based, human; conditions: HT-DNA and IFN-γ, with bafilomycin
Description: (A) Confocal microscopy of HeLa cells co-expressing mCherry-TRIM21, Flag-IRF3, and GFP-LC3B in the presence of bafilomycin A1. White outline, cell boundary. Arrows indicate the colocalization. (B) Confocal microscopy of HEK293 cells co-expressing mCherry-TRIM21, Flag-IRF3, and GFP-ULK1. (C) Co-immunoprecipitation analysis of IRF3-ULK1 complexes in the presence and absence of TRIM21. Lysates from HEK293 cells transiently expressing Myc-ULK1, Flag-IRF3, and either […] or GFP were immunoprecipitated with anti-Myc, and immunoblots were probed as indicated. (D) Levels of dimerized IRF3 were assessed by native PAGE from THP-1 cells subjected to TRIM21 or control knockdown, and stimulated for 12 h by herring testis DNA (HT-DNA) transfected into the cells in the presence of 200 U/mL IFN-γ. […]
Detection of IRF3 dimerization was performed by native polyacrylamide gel electrophoresis (PAGE) as previously described (Takahasi et al., 2003). Quantitative RT-PCR was performed as previously described (Kimura et al., 2013) using the following primer sets: ULK1, ([…], […]); BECN1, ([…], […]); ACTIN, ([…], […]); TRIM1, ([…], […]); TRIM5, ([…], […]); TRIM8, ([…], […]); TRIM16, ([…], […]); TRIM20, ([…], […]); TRIM21, ([…], […]); TRIM22, ([…], […]); TRIM28, ([…], […]); TRIM56, ([…], […]); and TRIM65, ([…], […]). […]

c1cc(-c2cnn3cc(-c4ccc(OCCN5CCCCC5)cc4)cnc23)ccn1 [Compound C]
AMPK inhibition (AMPK): potent inhibitor of AMPK

CO/C1=C\C(C)=C\[C@@H](C)[C@@H](O)[C@@H](C)C/C(C)=C/C=C/[C@H](OC)[C@@H]([C@@H](C)[C@@H](O)[C@H](C)[C@@]2(O)C[C@@H](O)[C@H](C)[C@@H](C(C)C)O2)OC1=O [bafilomycin A1]
NLRP3 degradation (NLRP3): protected NLRP3
IRGM-promoted NOD2 degradation (NOD2): partially blocked
TRIM20 degradation in the presence of NLRP3 ([1]; GFP-TRIM20 co-expressed with NLRP3): protected
degradation of pro-caspase 1 and NLRP1 co-expressed with TRIM20 ([1]; cells expressing GFP-TRIM20): inhabitable
destabilizing effect of TRIM20 overexpression on NLRP3 levels ([1]; cells expressing GFP-TRIM20): suppressed
dimerized IRF3 degradation (dimerized IRF3): protected dimerized IRF3 from degradation
